{"source": "patent EP4623911A1", "about": "“PI4KB INHIBITORS FOR THE TREATMENT OF FATTY LIVER DISEASE” (ETH Zurich, priority 2024, dated 2025)", "key": {"[1]": {"assay": "Indirect calorimetry in HFD-fed mice", "format": "in vivo", "conditions": "HFD mixed with UCB9608 (5 mg/kg) for 3 weeks, vs DMSO", "experimental": "8-10 weeks old C57BL/6N male mice were fed on HFD mixing with DMSO or UCB9608 (5 mg/kg) for 3 weeks before indirect calorimetry measurements were performed with Phenomaster (TSE systems) according to the manufacturer's instructions. Animals were single caged and adapted to the metabolic cage for 48h prior to metabolic recording. The energy expenditure between both groups was analyzed via ANCOVA method and RER was analyzed via two-way ANOVA method."}, "[2]": {"system": "steatotic human liver", "assay": "Ex vivo normothermic machine perfusion of a steatotic human liver graft", "experimental": "A human liver graft was perfused for 8 days, after being discarded from all Swiss transplant centers. Use of discarded grafts was approved by local authorities (Kantonale Ethik Kommission Zürich KEK Nr. 2017-000412). […] The liver was procured with a total ischemia time of 40 min after circulatory death of the donor. It was flushed with IGL-1 solution and perfused for 2 h with Belzer MPS at 8°C. The infrahepatic vena cava was closed with a suture and the hepatic artery, portal vein, suprahepatic vena cava and common bile duct were cannulated with steel cannulas. The graft was subsequently perfused with whole blood and a custom built normothermic perfusion machine (Eshmuminov,D. et al, Nat Biotechnol 38, (2020)). Hepatic arterial pressure was controlled to be 80/50 mmHg, allowing for an average flow of 0.25 L/min. A vasodilator, epoprostenol, was automatically infused to keep arterial flow stable. Oxygenation was automatically controlled with a setpoint partial pressure of oxygen equal to 12 kPa. Portal venous flow was controlled to be at 1 L/min, resulting in a pressure of 2 mmHg on average. Further, oxygenation of portal blood was automatically regulated to achieve 65% saturation in the vena cava. Use of an electric pinch valve further allowed for pressure regulation in the vena cava, keeping a constant pressure of 0 mmHg. Glucose levels were automatically controlled by using a real-time glucose sensor (CCIT) and automated insulin infusions, keeping glucose levels at 7 mmol/L from the second day of perfusion onwards. A dialysis bypass was used to clear waste metabolites and control haematocrit levels by using a fixed dialysate influx rate of 200 mL/h and an automatically controlled outflux. Liver function was well preserved for at least 6 days and cell viability, as monitored by ATP analysis and histology, remained until the end of perfusion. After 8 days of perfusion, the liver weight decreased to 1507g (without gallbladder) and was sent for pathological examination.\nPerfusate was mixed with 6 units of red blood cell concentrate (A+), 5 units of fresh frozen […], one unit of thrombocytes and 200 mL of 20% human albumin (CSL Behring). An initial bolus of 2.25 g Tazobactam and 500 mg Methylprednisolone was administered after priming. During the perfusion, 1000 U of heparin were infused per hour. Further, 2.25 g of Tazobactam, 3.36 g of ursodesoxycholic acid and 500 mg of methylprednisolone were continuously infused per day. UCB9608 was administered as a daily bolus by adding 300 µL of 50 mM solution directly to the blood reservoir, targeting a final concentration in the perfusate of 10 µM. On the first day, a larger bolus of 600 µL was given.\nAdipose depots, liver pieces, differentiated iBAs, HepG2, HEK293T and HEK293-AAV cell types were homogenized in RIPA buffer (50 mM Tris-HCl pH 7.4, 150 mM NaCl, 2 mM EDTA, 1.0% Triton X100, 0.5% sodium deoxycholate) with protease inhibitors (Complete, Roche) and phosphatase inhibitors (Halt phosphatase inhibitor cocktail, ThermoFisher). The homogenates were centrifuged at 12,000×g for 10 min at 4°C to remove debris and collect whole cell extract (WCE). The concentration of WCE was determined by DC Protein Assay (Bio-Rad). After boiling the sample with Lämmeli buffer at 95°C for 5 min, equal amount of proteins was loaded and separated on 12% SDS-PAGE. […]"}, "[3]": {"conditions": "UCB9608 daily, target concentration 10 µM, 8 days perfusion, unchanged in two control grafts"}}, "data": [{"smiles": "COc1ccc(NC(=O)N2CCN(c3nc(N)nc4c3cnn4C)[C@@H](C)C2)c(C)c1", "note": "[UCB9608]", "values": [{"measurement": "energy expenditure", "setting": "[1]", "result": "higher"}, {"measurement": "ATGL levels in human liver biopsies", "setting": "[2]; [3]", "result": "substantially elevated"}, {"measurement": "TG deposition in human liver biopsies", "setting": "[2]; [3]", "result": "reduced"}, {"measurement": "macrovesicular steatosis of the liver graft", "setting": "[2]; after 8 days of perfusion, 15% before perfusion", "result": "less than 5%"}, {"measurement": "bile acid excretion and oxygen consumption of the graft", "setting": "[2]; during perfusion with UCB9608", "result": "normal"}, {"measurement": "non-esterified fatty acids (NEFAs) from dialysate", "setting": "[2]; during perfusion with UCB9608", "result": "detected"}]}]}
